Measurements taken from PMC7340027 (Cell Reports, 2020).
Read-outs that look alike come from different tables or passages of the source. Marks after values point to notes of the source that are not given here.

Columns and labels:
[1] = tested on: HAE cultures; conditions: female, human
[2] = tested on: HAE cultures
[3] = tested on: SARS-CoV-2; experiment: microbe, parasite or virus in culture; assay type: cell-based, SARS-CoV-2 clinical isolate 2019-nCoV/USA-WA1/2020
[4] = tested on: Calu3 2B4 cells
[5] = tested on: SARS-CoV-2; assay type: cell-based, SARS-CoV-2 clinical isolate 2019-nCoV/USA-WA1/2020
[6] = tested on: Vero E6 cells
[7] = tested on: Vero E6 cells; remark: listed apart in the source
[8] = tested on: SARS-CoV-2; experiment: microbe, parasite or virus in culture; assay type: cell-based, SARS-CoV-2 clinical isolate 2019-nCoV/USA-WA1/2020; remark: listed apart in the source
[9] = tested on: Calu3 2B4 cells; conditions: human
[10] = Severe acute respiratory syndrome coronavirus 2, Calu-3 2B4, read-out: EC90 (infectious viral titer)
[11] = Severe acute respiratory syndrome coronavirus 2, Calu-3 2B4, read-out: EC90 (qRT-PCR)
[12] = Severe acute respiratory syndrome coronavirus 2, Calu-3 2B4, read-out: Genome copy EC50
[13] = Severe acute respiratory syndrome coronavirus 2, Calu-3 2B4, read-out: Plaque assay EC50

SMILES | difference in RDV-TP between the two HAE donor cultures [1] | cytotoxicity [2] | EC90 [3, 10] | EC90 [3, 11] | EC50 [3, 12] | EC50 [3, 13] | cytotoxicity [4] | inhibition of infectious virus production [5] | cytotoxicity [6] | RDV-TP at 24 h ([7]; African green monkey) | RDV-TP levels in Vero E6 cells lower than in HAE cultures ([7]; African green monkey) | RDV-TP levels in Vero E6 cells lower than in Calu3 2B4 ([7]; African green monkey (Vero E6) and human (Calu3 2B4)) | EC90 ([8]; Severe acute respiratory syndrome coronavirus 2, Vero C1008, read-out: EC90 (infectious viral titer)) | EC90 ([8]; Severe acute respiratory syndrome coronavirus 2, Vero C1008, read-out: EC90 (qRT-PCR)) | RDV-TP at 24 h [9]
CCC(CC)COC(=O)[C@H](C)N[P@](=O)(OC[C@H]1O[C@@](C#N)(c2ccc3c(N)ncnn23)[C@H](O)[C@@H]1O)Oc1ccccc1 [RDV, Remdesivir] | less than 3 fold | did not cause cytotoxicity | 2480 nM | 1280 nM | 600 nM | 280 nM | No significant cytotoxicity | more than 100 fold | No significant cytotoxicity | 0.50 ± 0.15 ^d pmol/million cells | ~20 fold | approximately 4 fold | – | – | –
N#C[C@@]1(c2ccc3c(N)ncnn23)O[C@H](CO)[C@@H](O)[C@H]1O [GS-441524] | – | – | 1340 nM | 1370 nM | 1090 nM | 620 nM | No significant cytotoxicity | – | No significant cytotoxicity | – | – | – | 710 nM | 800 nM | 0.85 ± 0.16 ^e pmol/million cells
